These results are taken from patent US20240342141A1, “Method for Treating or Preventing Diabetic Nephropathy” (Japan Tobacco Inc., priority 2015, published 2024).

For experiment [1], the system named is SHR/NDmcr-cp rat model of diabetic nephropathy. The experiment is described as follows: Suppressive effect on tubulointerstitial fibrosis in a rat model of diabetic nephropathy (sirius red staining). The conditions noted are these: male SHR/NDmcr-cp rats, Compound A 0.01% diet from 12 to 40 weeks of age (28 weeks), kidney sections; FIG. 1. The experiment is classed as in vivo. As for the experimental part: Experiment 1. […] Male […] (Japan SLC, Inc.) was used as an experiment animal, and male WKY/Izm rat was used as a normal control (WKY group). The above-mentioned two types of rats were purchased at 6 weeks of age. After confirming that […] have hyperglycemia, hypertension, and hyperlipidemia; Compound A (0.01% diet) and vehicle (powdered diet) were administered to Compound A Group and Vehicle Group respectively from 12 weeks of age to 40 weeks of age. At 40 weeks of age, the rats were exsanguinated under isoflurane anesthesia, kidney was collected and fixed in 10% neutral buffered formalin, and then paraffin-embedded section was prepared. After deparaffinization, the section was stained with an iron hematoxylin solution for 8 minutes and then with a sirius red solution for 1 hour. The iron hematoxylin solution was prepared at the time of use by mixing equal volume of Solution 1 (dissolving 1 g hematoxylin in 100 mL ethanol) and Solution 2 (dissolving 2 g ferric chloride (FeCl3·6H2O) and 1 mL of 25% hydrochloric acid in 95 mL distilled water). […] An image of the sirius red-stained section was captured with HS All-in-One Fluorescence Microscope (BZ-9000, KEYENCE CORPORATION), and the ratio (%) of sirius red-stained area relative to the whole kidney area was measured by a built-in image analysis function.

Experiment [2] relates to SD rat model of renal ischemia-reperfusion injury. Nature of the experiment: Suppressive effect on tubulointerstitial fibrosis in a rat model of renal ischemia-reperfusion injury (sirius red staining). The experiment is classed as in vivo. The conditions noted are these: male SD rats, oral once daily for 6 days starting 3 days before ischemia-reperfusion injury, 0.2 or 2 mg/mL at 5 mL/kg; kidney 4 weeks after injury; FIG. 3. As for the experimental part:
Experiment 2. […] Male SD rat at 6 weeks of age (CHARLES RIVER LABORATORIES JAPAN, INC.) was used as an experiment animal. 0.5% (w/v) Methylcellulose (MC) was orally administered to Vehicle Group and Sham Group, and 0.2 mg/mL or 2 mg/mL Compound A suspended in 0.5% (w/v) methylcellulose (MC) was orally administered to Compound A Group at a dose of 5 mL/kg once daily for 6 days from 3 days before the ischemia-reperfusion injury. On one day before the ischemia-reperfusion injury, the right kidney was removed under isoflurane anesthesia. The ischemia-reperfusion injury was induced by clamping the left renal vein and artery for 45 minutes and then following reperfusion under isoflurane anesthesia, whereas such a surgery treatment was not performed for the Sham Group. 4 Weeks after the ischemia-reperfusion injury, the rats were exsanguinated under isoflurane anesthesia, kidney was collected and fixed in 10% neutral buffered formalin, and then paraffin-embedded section was prepared. Staining and image analysis were performed by a similar method as described above.

Experiment [3] concerns prolyl hydroxylase (PHD). The conditions noted are these: as described in Patent Document 1 (WO 2011/007856); cited from earlier work.
The test system of experiment [4] is hypoxia-inducible factor (HIF). The conditions noted are these: as described in Patent Document 1 (WO 2011/007856); cited from earlier work.

Take `O=C(O)CNC(=O)c1c(O)cc(CCc2ccccc2)n2ncnc12` [Compound A, 2-({[7-hydroxy-5-(2-phenylethyl)-[1,2,4]triazolo[1,5-a]pyridin-8-yl]carbonyl}amino)acetic acid]: the “tubulointerstitial fibrosis, sirius red-stained area ratio” value in experiment [1] and in experiment [2] was “suppressive effect on tubulointerstitial fibrosis” throughout. The “prolyl hydroxylase (PHD) inhibitory action” value in experiment [3] was “has a prolyl hydroxylase (PHD) inhibitory action”. For the same compound, in experiment [4], the “stabilization of hypoxia-inducible factor (HIF)” value is reported as “stabilizes the hypoxia-inducible factor (HIF)”.
